In one test the test system is MCF-7. Kind of test: MTT cell viability assay. The settings on record: Homo sapiens, MCF7, 72 h. (In general: Tetrazolium dyes change colour on reduction, which living cells bring about.)
A further test deals with Jurkat. The test is described as follows: MTT cell viability assay. The settings on record: Homo sapiens, 72 h.
The test system of a further test is BEL7402. Kind of test: MTT cell viability assay. To be noted: Homo sapiens, Bel-7402, 72 h.
For another test, the system named is U266. The test is described as follows: MTT cell viability assay. The settings on record: Homo sapiens, U-266, 72 h.
The test system of a further test is SMMC7721. The test is described as follows: MTT cell viability assay. The settings on record: Homo sapiens, SMMC-7721, 72 h.
Test [1] concerns Wnt/β-catenin signaling in STF3a cells. The test is described as follows: STF3a SuperTopFlash luciferase reporter assay. Type of test: cell-based. The settings on record: 24 h. As to the method: The cell line STF3a, which stably expresses both the STF (SuperTopFlash) luciferase reporter promoter and the wnt3a gene was used to determine whether SKLB-677 can block the Wnt/β-catenin signaling. […]. […] Here we can conclude that the SKLB-677-mediated blockade of Wnt/β-catenin signaling is not due to FLT3 inhibition. We then examined whether the first-generation FLT3 inhibitors could inhibit Wnt/β-catenin signaling. […].
STF3a cells (8 × 10^3) were seeded overnight in 96-well plates (triplicate wells per treatment). Cells were treated with 0.1% DMSO or tested compounds for 24 h with Luciferase assay system (Promega) performed according to the manufacturer’s instructions. […] The reporter activity was expressed as relative values compared with vehicle control.
Figure 3 Effects of SKLB-677 on Wnt/β-catenin signaling. […]. All data points are means of triplicates ± SD. ns, not statistically significant, **P < 0.01, ***P < 0.005 among groups. […]. (c) STF3a cells were incubated with various concentrations of SKLB-677 for 24 h.The cell lysates were detected using the antibodies against S33/37/T41 Non-phospho β-catenin (active β-catenin), and total β-catenin (β-catenin). (d) STF3a cells were treated with indicated concentrations of SKLB-677 for 24 h. MYC, CCND1, and NKD1 mRNA expressions were determined through real-time qPCR analysis. All samples were normalized to the level of GAPDH (mean ± SEM from triplicate reactions). *P < 0.05, **P < 0.01, ***P < 0.005. (e) Representative images of zebrafish embryos at 24hpf with tail formation after incubation with various concentrations of SKLB-677 for 20 h. (f) Zebrafish embryos were injected with wnt8.1 mRNA (30 pg) or vehicle mRNA (phaenotype control). […]. Results shown in the histogram are expressed as the percentage of embryos in each phenotypic class after the treatment (n > 70). Class 1: wild-type, class 2: posteriorized, resulting in the loss of the eyes, and class 3: more severely posteriorized, as evidenced by head truncation.
On the technique in general: Reporter assays use an easily measured gene product as a stand-in for the process of interest.

The next test deals with MV4-11. The test is described as follows: MTT cell viability assay. The settings on record: Homo sapiens, MV4-11, 72 h.
For another test, the system named is HL-60. The test is described as follows: MTT cell viability assay. The settings on record: Homo sapiens, HL-60, 72 h.
Another test deals with Raji. The test is described as follows: MTT cell viability assay. The settings on record: Homo sapiens, 72 h.
The test system of the next test is Karpas-299. The test is described as follows: MTT cell viability assay. To be noted: Homo sapiens, KARPAS-299, 72 h.
For another test, the system named is A549. The test is described as follows: MTT cell viability assay. To be noted: Homo sapiens, A549, 72 h.
The test system of the next test is HeLa. Kind of test: MTT cell viability assay. The settings on record: Homo sapiens, 72 h.
The target of the next test is T1, CDK3 (Homo sapiens, UniProt Q00526).
T1 construct: purchased DiscoveRx KINOMEscan (Ambit Biosciences)
Kind of test: KINOMEscan panel screen. Type of test: binding. The settings on record: read-out: Percent Control(%).

Another test concerns the target T2, MET (Homo sapiens, UniProt P08581).
T2 construct: purchased DiscoveRx KINOMEscan (Ambit Biosciences)
The test is described as follows: KINOMEscan panel screen. To be noted: read-out: Percent Control(%). It counts as binding.

The target of the next test is T3, PCTK3 (Homo sapiens, UniProt Q07002).
T3 construct: purchased DiscoveRx KINOMEscan (Ambit Biosciences)
The test is described as follows: KINOMEscan panel screen. Type of test: binding. To be noted: read-out: Percent Control(%).

In the next test the target is T4, PFTAIRE2 (Homo sapiens, UniProt Q96Q40).
T4 construct: purchased DiscoveRx KINOMEscan (Ambit Biosciences)
The test is described as follows: KINOMEscan panel screen. Type of test: binding. The settings on record: read-out: Percent Control(%).

For test [2], the target named is T5, RSK3(Kin.Dom.2-C-terminal) (Homo sapiens, UniProt Q15349).
T5 construct: RSK3(Kin.Dom.2-C-terminal); purchased DiscoveRx KINOMEscan (Ambit Biosciences)
Kind of test: KINOMEscan panel screen. Type of test: binding. The settings on record: read-out: Percent Control(%).

pIC50: −log10 of the molar value. Where two headings read alike, the source gives them in different places.

T5 sequence (Q15349 415-672 limits assumed): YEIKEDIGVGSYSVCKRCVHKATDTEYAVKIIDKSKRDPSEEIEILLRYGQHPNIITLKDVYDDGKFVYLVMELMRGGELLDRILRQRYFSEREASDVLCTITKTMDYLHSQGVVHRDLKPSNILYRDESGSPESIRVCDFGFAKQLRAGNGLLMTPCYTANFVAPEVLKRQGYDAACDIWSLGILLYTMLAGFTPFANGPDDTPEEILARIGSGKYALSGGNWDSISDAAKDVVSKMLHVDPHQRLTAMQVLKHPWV
T4 sequence (Q96Q40 whole entry): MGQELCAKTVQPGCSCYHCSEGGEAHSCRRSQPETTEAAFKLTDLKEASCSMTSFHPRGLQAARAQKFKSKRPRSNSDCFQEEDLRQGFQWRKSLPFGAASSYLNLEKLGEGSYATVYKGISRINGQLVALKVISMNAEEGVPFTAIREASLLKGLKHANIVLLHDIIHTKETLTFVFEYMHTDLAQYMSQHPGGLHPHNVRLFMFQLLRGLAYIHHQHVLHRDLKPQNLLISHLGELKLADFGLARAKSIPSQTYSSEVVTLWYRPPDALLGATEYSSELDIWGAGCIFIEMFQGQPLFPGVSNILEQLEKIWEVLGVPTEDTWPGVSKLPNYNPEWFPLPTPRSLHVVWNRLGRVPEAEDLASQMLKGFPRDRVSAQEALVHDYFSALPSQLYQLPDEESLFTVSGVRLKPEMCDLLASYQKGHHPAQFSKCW
T2 sequence (P08581 25-1390): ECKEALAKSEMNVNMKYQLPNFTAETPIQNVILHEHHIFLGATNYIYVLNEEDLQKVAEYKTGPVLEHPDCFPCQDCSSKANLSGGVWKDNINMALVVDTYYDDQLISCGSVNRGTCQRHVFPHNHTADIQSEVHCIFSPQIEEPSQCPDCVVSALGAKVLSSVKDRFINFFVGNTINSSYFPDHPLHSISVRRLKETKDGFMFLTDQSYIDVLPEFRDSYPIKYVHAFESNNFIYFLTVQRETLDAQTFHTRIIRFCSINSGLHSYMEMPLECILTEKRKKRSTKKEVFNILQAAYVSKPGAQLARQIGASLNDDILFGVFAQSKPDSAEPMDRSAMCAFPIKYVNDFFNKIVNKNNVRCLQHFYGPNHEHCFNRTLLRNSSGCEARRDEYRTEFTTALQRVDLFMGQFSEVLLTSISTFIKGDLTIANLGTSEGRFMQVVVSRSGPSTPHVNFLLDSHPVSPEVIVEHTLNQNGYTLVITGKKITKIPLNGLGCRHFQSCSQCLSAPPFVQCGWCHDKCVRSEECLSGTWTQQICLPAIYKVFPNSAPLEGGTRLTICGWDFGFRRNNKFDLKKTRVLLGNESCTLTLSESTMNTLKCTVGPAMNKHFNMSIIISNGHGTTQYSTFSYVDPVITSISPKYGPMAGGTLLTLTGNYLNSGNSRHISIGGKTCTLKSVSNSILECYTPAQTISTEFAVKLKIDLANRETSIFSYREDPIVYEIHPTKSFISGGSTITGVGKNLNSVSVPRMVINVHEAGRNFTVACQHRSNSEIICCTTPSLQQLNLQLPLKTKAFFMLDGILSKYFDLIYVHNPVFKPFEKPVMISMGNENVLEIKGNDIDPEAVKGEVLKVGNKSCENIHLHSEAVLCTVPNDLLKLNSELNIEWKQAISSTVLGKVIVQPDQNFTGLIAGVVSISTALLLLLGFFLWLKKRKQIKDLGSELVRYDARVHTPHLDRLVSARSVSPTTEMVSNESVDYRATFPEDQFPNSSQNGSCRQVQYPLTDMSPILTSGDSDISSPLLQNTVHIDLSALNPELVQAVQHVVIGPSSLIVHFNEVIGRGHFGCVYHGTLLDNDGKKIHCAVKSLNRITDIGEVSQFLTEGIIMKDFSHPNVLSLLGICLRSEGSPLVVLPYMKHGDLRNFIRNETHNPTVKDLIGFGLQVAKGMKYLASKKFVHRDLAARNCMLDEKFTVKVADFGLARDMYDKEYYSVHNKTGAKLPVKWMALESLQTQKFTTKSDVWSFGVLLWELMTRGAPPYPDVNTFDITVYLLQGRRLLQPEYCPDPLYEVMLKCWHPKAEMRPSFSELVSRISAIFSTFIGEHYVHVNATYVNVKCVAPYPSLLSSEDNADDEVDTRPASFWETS
T3 sequence (Q07002 whole entry): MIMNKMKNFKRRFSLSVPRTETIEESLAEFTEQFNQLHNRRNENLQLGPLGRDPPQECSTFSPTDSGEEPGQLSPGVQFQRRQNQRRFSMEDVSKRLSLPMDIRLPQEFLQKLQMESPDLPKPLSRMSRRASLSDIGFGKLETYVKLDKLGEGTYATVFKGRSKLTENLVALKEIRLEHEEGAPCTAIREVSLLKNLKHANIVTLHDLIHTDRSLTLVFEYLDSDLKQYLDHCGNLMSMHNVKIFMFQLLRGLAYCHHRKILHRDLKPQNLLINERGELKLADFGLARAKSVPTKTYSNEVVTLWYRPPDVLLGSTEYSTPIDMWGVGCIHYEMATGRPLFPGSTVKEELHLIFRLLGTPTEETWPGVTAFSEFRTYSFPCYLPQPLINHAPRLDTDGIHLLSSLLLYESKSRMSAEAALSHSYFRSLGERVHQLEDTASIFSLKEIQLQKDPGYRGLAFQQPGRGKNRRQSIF
T1 sequence (Q00526 whole entry): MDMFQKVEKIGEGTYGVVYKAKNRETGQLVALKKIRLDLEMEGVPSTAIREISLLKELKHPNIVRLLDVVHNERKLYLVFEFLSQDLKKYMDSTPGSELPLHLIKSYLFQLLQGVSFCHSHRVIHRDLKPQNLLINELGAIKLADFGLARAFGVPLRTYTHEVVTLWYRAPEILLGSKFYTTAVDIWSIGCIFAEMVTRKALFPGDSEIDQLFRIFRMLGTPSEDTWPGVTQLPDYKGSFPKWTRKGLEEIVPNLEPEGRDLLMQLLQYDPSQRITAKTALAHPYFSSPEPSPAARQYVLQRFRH

For `O=C(Nc1ccc(Oc2ncnc3[nH]ncc23)cc1)Nc1ccc(Cl)c(C(F)(F)F)c1` [Compound 1, 1-(4-(1H-pyrazolo[3,4-d]pyrimidin-4-yloxy)phenyl)-3-(4-chloro-3-(trifluoromethyl)phenyl)urea], the pIC50 in the test with MCF-7 was below 5.00; in the test on Jurkat, 5.06; in the test on BEL7402 it was below 5.00; with U266 it was below 5.00; in the test on SMMC7721, below 5.00; with MV4-11, 8.40. The pIC50 in the test on HL-60, in the test on Raji, in the test on Karpas-299, in the test with A549 and in the test on HeLa was below 5.00 throughout. Also, the “attenuation of Wnt/β-catenin signaling” value in test [1] (STF3a cells) is recorded as “very weak activity”.
As to `CC(C)(C)c1cc(NC(=O)Nc2ccc(Oc3ncnc4[nH]ncc34)c(F)c2)no1` [SKLB-677, 1-(4-(1H-pyrazolo[3,4-d]pyrimidin-4-yloxy)-3-fluorophenyl)-3-(5-tert-butylisoxazol-3-yl)urea], the pIC50 was below 5.00 in the test with MCF-7; 5.37 in the test on Jurkat; below 5.00 in the test on BEL7402; below 5.00 with U266; below 5.00 in the test with SMMC7721; above 7.00 in test [1] (STF3A, read-out: IC50, inhibition of the Wnt/β-catenin signaling). In addition, the pIC50 in the test with MV4-11 is 10.10; with MV4-11 (read-out: Cell viability IC50) it was 10.10; with HL-60, 5.05; in the test on Raji, 5.10; with Karpas-299, 5.15; with A549, 5.19. In addition, the pIC50 with HeLa is 5.02. Further, the remaining binding at 10 µM at CDK3 amounted to 0.2%; on MET it was 0.05%; on PCTK3, 0.05%; at PFTAIRE2, 0.85%; in [2], 19%.

(Values after PMC4620497 (Scientific Reports, 2015).)
